How the values were obtained:
[1] = test system: HeLa-EGFP-182TAG reporter cells; assay: Cell viability assay with various concentrations of FSY; type: cell-based
E. coli DH10B cells = assay: Growth curve of E. coli DH10B cells in the presence or absence of FSY; type: cell-based; conditions: 1 mM FSY, 37° C.
Method: FIG. 6 provides a growth curve of E. coli DH10B cells at 37° C. in the presence or absence of 1 mM FSY. The experiments were repeated for three times.
The incorporation specificity of FSY into proteins in E. coli was evaluated. The Zspa affibody (Afb) gene containing a TAG codon at position 36 (Afb-36TAG) was co-expressed with the tRNA^Pyl/FSYRS pair in E. coli. In the absence of FSY, no full-length Afb was detected; when 1 mM FSY was added in growth media, full-length Afb36FSY was produced with a yield of 1.6 mg/L (FIG. 1C). The purified Afb36FSY was analyzed by electrospray ionization time-of-flight mass spectrometry (ESI-TOF MS) (FIG. 1D). A peak observed at 7855.96 Da corresponds to intact Afb containing FSY at site 36 (Afb36FSY: expected 7856.69 Da). A peak measured at 7724.77 Da corresponds to Afb36FSY lacking the initiating Met (Afb36FSY-Met: expected 7725.50 Da). […] FSY was also incorporated at position 24 of the Z protein and analyzed with tandem MS.

293T cells = assay: Cell viability assay with various concentrations of FSY; type: cell-based
[2] = test system: HeLa-EGFP-182TAG reporter cells; assay: FACS analysis of Uaa incorporation into EGFP-182TAG reporter cells; type: cell-based
Method: (§1) FSY incorporation into proteins in mammalian cells was tested. HeLa-EGFP-182TAG reporter cells were transfected with plasmid pMP-FSYRS-3×tRNA, which expresses FSYRS and tRNA^Pyl genes. Wang et al, Nat. Neurosci., 10:1063-1072 (2007). Suppression of the 182TAG codon would produce full-length EGFP rendering cells fluorescent. After transfection, cells were incubated with FSY of various concentrations at 37° C. for 24 or 48 h followed by flow cytometry. […] The fluorescence intensity increased with FSY concentration and incubation time (FIG. 2B, FIG. 7). As a positive control, p-azido-L-phenylalanine (AzF) was incorporated into reporter cells in parallel using plasmid pIre-Azi3, which is the most efficient Uaa incorporation system in mammalian cells in our hands. Coin et al, Cell, 155:1258-1269 (2013). […] No fluorescence signal was detected when FSY was not added.
FACS analysis of Uaa incorporation into HeLa-GFP-182TAG reporter cells: One day before transfection, 4.5×10^4 HeLa-EGFP-182TAG reporter cells (Wang et al, Nat. Neurosci., 10:1063-1072 (2007)) were seeded in a Greiner bio-one 24 well-cell culture dish containing 500 μL of DMEM media with 10% FBS, and incubated at 37° C. in a CO2 incubator. […] The cells were resuspended in 300 μL of FACS buffer (1×PBS, 2% FBS, 1 mM EDTA, 0.1% sodium azide, […]) and analyzed by BD LSRFortessa™ cell analyzer.

[3] = test system: HeLa-EGFP-182TAG reporter cells; assay: Fluorescence confocal microscopy of reporter cells; type: cell-based; conditions: in the presence of FSY
Method: as §1, with “(2013). FSY incorporation compared favorably with AzF, reaching 76% of the AzF level. […] Chen et al, J. Am. Chem. Soc., 138:7353-7364 (2016).” for “(2013).”
Fluorescence confocal microscopy of HeLa-EGFP-182TAG reporter cells: One day before transfection, 4.5×10^4 HeLa-EGFP-182TAG cells were seeded in a Greiner bio-one CELLview glass bottom dish containing 500 μL of DMEM media with 10% FBS, and incubated at 37° C. in a CO2 incubator. […]

[4] = target: T1, extracellular domain of the hGH receptor (Homo sapiens, UniProt P10912); assay: Covalent crosslinking of hGH with the extracellular domain of hGH receptor (Western blot); type: binding; conditions: PBS buffer, different durations of time, Western blot anti-Hisx6
T1 construct: incubated with the extracellular domain of the hGH receptor
T1 sequence (P10912 19-264): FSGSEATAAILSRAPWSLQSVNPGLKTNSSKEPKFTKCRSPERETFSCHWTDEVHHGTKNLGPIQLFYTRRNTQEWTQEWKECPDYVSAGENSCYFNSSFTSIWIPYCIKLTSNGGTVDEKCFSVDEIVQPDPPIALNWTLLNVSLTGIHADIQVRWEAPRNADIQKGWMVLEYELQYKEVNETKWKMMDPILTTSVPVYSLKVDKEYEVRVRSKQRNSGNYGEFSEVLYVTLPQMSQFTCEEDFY

[5] = test system: STAT5 phosphorylation in BAF3 cells, a cell line with hGH receptor expression; assay: pSTAT5 production in BAF3 cells upon stimulation by hGH (Western blot); type: cell-based; conditions: Western blot of cell lysates
From the text: It was also examined whether FSY incorporation into hGH would affect its biological activity. Upon hGH binding with its receptor, STAT5 is phosphorylated as a downstream signal via the JAK/STAT pathway, leading to transcription of genes important for cell immunity, proliferation, and apoptosis (Waters, M J. et al. Clin. Exp. Pharmacol. Physiol. 1999, 10760-764). The inventors stimulated BAF3 cells, a cell line with hGH receptor expression, with hGH(WT) and hGH(FSY), and then probed pSTAT5 expression using Western blot analysis of cell lysates.

Row | Compound | toxicity to HeLa cells [1] | E. coli growth (cytotoxicity) (E. coli DH10B cells) | toxicity to 293T cells (293T cells) | FSY incorporation relative to the AzF level ([2]; EGFP-182TAG suppression in HeLa reporter cells, AzF as positive control) | EGFP fluorescence by flow cytometry ([2]; cells transfected with pMP-FSYRS-3×tRNA, FSY at 37° C. for 24 or 48 h) | cell morphology [3] | covalent crosslinking with the hGH receptor (band at ~50 kD) [4] | stimulation of STAT5 phosphorylation [5]
1 | N[C@@H](Cc1ccc(OS(=O)(=O)F)cc1)C(=O)O [FSY, fluorosulfate-L-tyrosine] | no obvious toxicity | did not affect E. coli growth | no obvious toxicity | 76% | Strong EGFP fluorescence | remained normal | – | –
2 | hGH(FSY): Human growth hormone with FSY genetically incorporated at site 68 | – | – | – | – | – | – | covalently crosslinked | the same effect of stimulating STAT5 phosphorylation as the hGH(WT)

Source: patent US20250084121A1, “BIOREACTIVE COMPOSITIONS AND METHODS OF USE THEREOF” (The Regents of the University of California, priority 2018, published 2025)
